Measurements taken from patent US9510593B2, “S-benzylthiouracil compounds and methods of enhancing plant root growth” (Valent BioSciences Corporation, priority 2014, dated 2016).
“Also recorded” adds a separate entry of the source. Read-outs that look alike come from different tables or passages of the source.

What was measured:
Assay type in all cases: in vivo
rice = experiment: Rice pouch assay: growth of primary root and shoot; details: for Percent Change in Primary Root Length of Rice / change in vivo at 10 ppm: 10 ppm (10 mg/L), vs control; for Percent Change in Primary Root Length of Rice: linkage changes; for Effect on rice root growth, in words: rice pouch assay, compared to control; for change in vivo at 10 ppm: Oryza sativa, 144 h, read-out: Percent Change in Primary Root Length in Rice; for Shoot Length: control 1.7
Description: Seeds were placed in germination pouches consisting of germination paper as an insert in a gas-permeable 16×14 cm plastic pouch (CYG Pouch; Mega International, St. Paul, Minn.). In pouch solution evaluation, S-Benzylthiouracil compounds or their salts were dissolved in a small volume of DMSO and added to sterile water with a maximum of 0.5% v/v DMSO at final dilution. The S-Benzylthiouracil solution was subsequently pipetted into the growth pouch, followed by the addition of seeds of the crop being tested. The pouches were arranged in a randomized complete block design in growth racks and placed in 19-liter polycarbonate food storage containers (Rubbermaid Commercial Products, Winchester, Va.). The sealed containers were held in an upright growth cabinet maintained at 25 C with a 12 hour light: 12 hour dark photoperiod. For rice, plants were harvested at 6 d, while in mungbean and corn, the plants were harvested at 4 d post sowing. Measurements were performed on the primary root and shoot of each seedling. The growth of the primary root of rice was examined in the pouch assay system. The results of the testing, presented as percent change in root length across all S-Benzylthiouracil compounds, are shown below.

mungbean = experiment: Mungbean pouch assay: growth of primary root and shoot; details: for Percent Change in Primary Root Length: mungbean, linkage changes; for Percent Change in Primary Root Length / change in vivo at 10 ppm: 10 ppm (10 mg/L); for change in vivo at 10 ppm: 96 h, read-out: Percent Change in Primary Root Length of Mungbean
Description: Seeds were placed in germination pouches consisting of germination paper as an insert in a gas-permeable 16×14 cm plastic pouch (CYG Pouch; Mega International, St. Paul, Minn.). In pouch solution evaluation, S-Benzylthiouracil compounds or their salts were dissolved in a small volume of DMSO and added to sterile water with a maximum of 0.5% v/v DMSO at final dilution. The S-Benzylthiouracil solution was subsequently pipetted into the growth pouch, followed by the addition of seeds of the crop being tested. The pouches were arranged in a randomized complete block design in growth racks and placed in 19-liter polycarbonate food storage containers (Rubbermaid Commercial Products, Winchester, Va.). The sealed containers were held in an upright growth cabinet maintained at 25 C with a 12 hour light: 12 hour dark photoperiod. For rice, plants were harvested at 6 d, while in mungbean and corn, the plants were harvested at 4 d post sowing. Measurements were performed on the primary root and shoot of each seedling. The growth of the primary root of mungbean was examined in the pouch assay system. The results of the testing, presented as percent change in root length across all the free S-Benzylthiouracil compounds is shown below. The following S-Benzylthiouracil compounds have benzyl substitutions as defined in Table 11 below.

tomato = experiment: Tomato petri plate assay; details: for change in vivo at 10 ppm: Solanum lycopersicum, 144 h, after 6 days of continuous exposure, read-out: Percent Increase (percent change in primary tomato root length)
Description: For tomato, the plants were grown in disposable (150 mm) sterile plastic petri plates (Falcon, BD Biosciences, Franklin Lakes, N.J.). In the tomato assay, a single sheet of Whatman #1 filter paper was placed at the bottom of the plate, 15 tomato seeds were added, and 10 mL of treatment solution was added. At the end of 6 d, the 10 largest seedlings were selected for measurement from each plate. In each study, a minimum of 3 replicate plates were used. In tomato, several S-Benzylthiouracil compounds were tested to determine the effects on root growth.

Oc1ccnc(SCCc2ccccc2)n1 [Compound 22]
Percent Change in Primary Root Length of Rice (rice): 5.3%
Effect on rice root growth, in words (rice): modest enhancements in root growth
Percent Change in Primary Root Length (mungbean): 29.0%

Nc1ccnc(SCc2cccc(F)c2)n1 [Compound 19]
change in vivo at 10 ppm (rice; uracil moiety substitutions): 2.9%

CCOC(=O)c1cnc(SCc2cccc(F)c2)nc1O [Compound 12, S-(3-Fluorobenzyl)-5-carboxyethyl-2-thiouracil]
change in vivo at 10 ppm (rice; uracil moiety substitutions): 9.5%
change in vivo at 10 ppm (mungbean; uracil moiety substitutions): -20.1%
Effect on mungbean root (and shoot) growth, in words (mungbean; mungbean pouch assay): significant negative effect on root growth

Cc1cc(O)nc(SCc2ccccc2C)n1 [Compound 14]
change in vivo at 10 ppm (rice; uracil moiety substitutions): 8.6%
change in vivo at 10 ppm (mungbean; uracil moiety substitutions): 15.4%

Oc1ccnc(SCc2ccc(F)c(F)c2)n1 [Compound 5, S-(3,4-Difluorobenzyl)-2-thiouracil]
change in vivo at 10 ppm (rice; benzyl ring substitutions): 13.4%
change in vivo at 10 ppm (mungbean; benzyl ring substitutions): 17.6%
change in vivo at 10 ppm (tomato): 23.4%

Oc1cc(O)nc(SCc2cccc(F)c2)n1 [Compound 18]
Percent Change (rice primary root growth) (rice; 10 ppm, compounds and water-soluble salts, 6 days after sowing): 4.0%
change in vivo at 10 ppm (rice; uracil moiety substitutions): 4%
change in vivo at 10 ppm (mungbean; uracil moiety substitutions): 11.3%
change in vivo at 10 ppm (tomato): 15.4%

Oc1nc(SCc2cccc(F)c2)nc2[nH]cnc12 [Compound 13]
change in vivo at 10 ppm (rice; uracil moiety substitutions): 8.7%
change in vivo at 10 ppm (mungbean; uracil moiety substitutions): 4.5%
change in vivo at 10 ppm (tomato): 0.8%
Effect on tomato root growth, in words (tomato; tomato, continuous exposure): root growth inhibition

Cc1cccc(CSc2nccc(O)n2)c1 [Compound 9]
change in vivo at 10 ppm (rice; benzyl ring substitutions): -2.3%
change in vivo at 10 ppm (mungbean; benzyl ring substitutions): 5.9%

Oc1ccnc(OCc2cccc(F)c2)n1 [Compound 21, 2-O-(3-fluorobenzyl)uracil]
Percent Change in Primary Root Length of Rice (rice): 6.0%
Percent Change in Primary Root Length (mungbean): 9.1%

Fc1cccc(CSc2ncccn2)c1 [Compound 17]
change in vivo at 10 ppm (rice; uracil moiety substitutions): 5.1%
change in vivo at 10 ppm (mungbean; uracil moiety substitutions): 11.1%

[Na+].[O-]c1ccnc(SCc2ccccc2)n1 [Compound 2 Na+ salt, Sodium Salt of S-Benzyl-2-thiouracil]
Root Length (rice; 10 mg/liter, 6 days after sowing, untreated control 10.50): 12.35 cm
Root Length (rice; 30 mg/liter, 6 days after sowing, untreated control 10.50): 13.03 cm

Cc1cc(O)nc(SCc2ccccc2Cl)n1 [Compound 20]
Shoot Length (rice; 1 ppm, 6 days after planting): 1.4 cm
Root Length (rice; 1 ppm, 6 days after planting, control 5.4): 5.3 cm
Shoot Length (rice; 2 ppm, 6 days after planting): 1.3 cm
Root Length (rice; 2 ppm, 6 days after planting, control 5.4): 4.7 cm
Shoot Length (rice; 5 ppm, 6 days after planting): 1.2 cm
Root Length (rice; 5 ppm, 6 days after planting, control 5.4): 4.6 cm
Shoot Length (rice; 10 ppm, 6 days after planting): 0.9 cm
Root Length (rice; 10 ppm, 6 days after planting, control 5.4): 3.8 cm
change in vivo at 10 ppm (rice; uracil moiety substitutions): -6.9%
Effect on rice root growth, in words (rice): significantly negative effect; also recorded: dose-dependent reductions in root and shoot growth
change in vivo at 10 ppm (mungbean; uracil moiety substitutions): 8.2%

Oc1cc(O)nc(SCc2ccccc2)n1 [Compound 10]
change in vivo at 10 ppm (rice; uracil moiety substitutions): 11.5%
change in vivo at 10 ppm (mungbean; uracil moiety substitutions): 5.9%
change in vivo at 10 ppm (tomato): 8.4%
